Values quoted from earlier work as cited in article PMC3530844 (ACS medicinal chemistry letters, 2012).

Key:
hD2 receptors = hD2 receptors (Homo sapiens, UniProt P14416); conditions: [35S]GTPγS; ref Ghosh et al., J. Med. Chem. 2010, 53, 2114-2125
hD3 receptors = hD3 receptors (Homo sapiens, UniProt P35462); conditions: [35S]GTPγS; ref Ghosh et al., J. Med. Chem. 2010, 53, 2114-2125
hD3 receptors, sequence (P35462 whole entry): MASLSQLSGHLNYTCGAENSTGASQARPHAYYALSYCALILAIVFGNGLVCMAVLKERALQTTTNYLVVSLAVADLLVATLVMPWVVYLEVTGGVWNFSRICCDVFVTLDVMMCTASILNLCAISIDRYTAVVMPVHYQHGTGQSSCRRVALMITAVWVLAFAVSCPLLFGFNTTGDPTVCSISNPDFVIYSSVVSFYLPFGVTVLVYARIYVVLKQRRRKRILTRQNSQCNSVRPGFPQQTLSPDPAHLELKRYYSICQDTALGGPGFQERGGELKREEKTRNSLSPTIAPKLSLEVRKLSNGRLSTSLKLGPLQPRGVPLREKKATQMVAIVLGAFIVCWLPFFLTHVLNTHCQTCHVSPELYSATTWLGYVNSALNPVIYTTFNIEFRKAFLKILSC

hD2 receptors, sequence (P14416 whole entry): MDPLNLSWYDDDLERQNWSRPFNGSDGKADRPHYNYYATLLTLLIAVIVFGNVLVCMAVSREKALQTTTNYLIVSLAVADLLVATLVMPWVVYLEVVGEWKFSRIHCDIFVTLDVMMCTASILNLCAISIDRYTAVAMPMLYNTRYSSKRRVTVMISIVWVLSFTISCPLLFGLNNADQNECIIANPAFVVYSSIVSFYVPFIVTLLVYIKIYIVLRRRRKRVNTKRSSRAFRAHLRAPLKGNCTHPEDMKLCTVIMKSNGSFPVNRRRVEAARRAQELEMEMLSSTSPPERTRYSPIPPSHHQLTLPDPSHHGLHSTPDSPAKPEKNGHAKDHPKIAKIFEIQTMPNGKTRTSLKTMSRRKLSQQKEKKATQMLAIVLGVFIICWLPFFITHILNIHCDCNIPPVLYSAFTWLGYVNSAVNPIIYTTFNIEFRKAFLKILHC

## CCCN(CCC)CCc1cccc2c1CC(=O)N2 [Ropinirole]
hD2 receptors
  %Emax hCHO-D2: 74 ± 0.9%
hD3 receptors
  %Emax hCHO-D3: 67 ± 8%
